Source: US7226746B1, “Method for screening for anti-amyloidogenic properties and method for treatment of neurodegenerative disease” (The Regents of the University of California, priority 1998, dated 2007)

Legend:
β-synuclein δ2 = target: T1, β-synuclein δ2 (Homo sapiens, UniProt Q16143, A63V/F71V/H65N/INS70[…]/L66V/S64T/S72E); test: Inhibition of high temperature aggregation by Congo red (β-synuclein δ2); format: biochemical; settings: 20 μM protein, pH 6.9, 65° C., 20 hours, micromolar concentrations of Congo red
T1 construct: 6xHis (cleaved yes); made in house; host or cells: E. coli
Protocol: (§1) In order to test the susceptibility of the newly constructed β-synuclein mutants to aggregation, an aggregation assay can be performed. To do this, 10–20 μM of each of the mutant proteins are incubated in a total volume of 20 μl with a final concentration of 100 mM sodium acetate, pH 6.9. Aggregation can be induced under a variety of conditions, for instance, low pH and high temperature. SDS-PAGE analysis/immunoblotting or Thioflavine-S staining provides means for evaluating the reacted samples, the methods of which are described above and well known to those in the art.
(§2) Since previous studies have shown that the aggregation of amyloidogenic proteins were to some extent inhibited by Congo red, increasing concentrations of Congo red were added in the present aggregation system. […] As is shown in FIG. 5, the monomer bands were slightly but surely stabilized by treatment with micromolar concentrations of Congo red, which is consistent with other reported studies.

NACP/α-synuclein [1] = target: T2, NACP/α-synuclein (Homo sapiens, UniProt P37840); test: Inhibition of high temperature aggregation by Congo red (NACP/α-synuclein); format: biochemical; parameters: which encodes full length NACP/α-synuclein 140; 6xHis (cleaved yes); made in house; host or cells: E. coli; settings: 20 μM protein, pH 6.9, 65° C., 20 hours, micromolar concentrations of Congo red
Protocol: as §1, §2

[2] = target: T3, human recombinant NACP/α-synuclein 140 (Homo sapiens, UniProt P37840); test: Ferric ion-induced aggregation of NACP/α-synuclein 140, immunoblotting analysis; format: biochemical; settings: 4 hour incubation, pH 7.4, 37° C.; 0-1 mM ferric ion, concentration dependent
T3 construct: which encodes full length NACP/α-synuclein 140; 6xHis (cleaved yes); made in house; host or cells: E. coli DH5α
Protocol: (§3) The cells are harvested and re-suspended in 50 mM Tris-HCl, pH 8.5, containing protease inhibitors. Following sonication and centrifugation of the re-suspension, the supernatant is applied to a Ni-NTA column and eluted with 20 mM Tris-HCl, pH 8.5, containing 100 mM KCl, 100 mM imidazole, […] v/v glycerol and 10 mM β-mercaptoethanol. The eluted fusion protein is dialyzed against 50 mM Tris-HCl, pH 8.5, cleaved with recombinant TEV protease and again applied to a Ni-NTA column. The recombinant NACP/α-synuclein is isolated in the flow through fractions, pooled and stored at −20° C. until use.
(§4) Prior to experimentation, each of the recombinant proteins need to be desalted by way of passage through PD 10 columns (Pharmacia, Piscataway, N.J.) in water and then adjusted to a final concentration of 5 μM. NACP/α-synuclein protein (1 μl) is incubated in a total volume of 20 μl of buffer containing 20 mM Tris-HCl, pH 7.4. To perform the immuno-blotting analysis, each sample is resolved by SDS-PAGE (15%) and blotted onto nitrocellulose membrane (Schleicher & Schuell, Keene, N.H.). The blotted membrane is blocked with Tris-Buffered saline (TBS; 20 mM Tris-HCl, pH 7.5 and 150 mM NaCl) containing 3% BSA, followed by incubation with anti-C-terminal rabbit polyclonal antibody (1:1000) in TBS containing 1% BSA. […]

NACP/α-synuclein [3] = target: T2, NACP/α-synuclein; test: Iron-catalyzed oxidative reaction (metal ion plus hydrogen peroxide) aggregation of NACP/α-synuclein, immunoblotting; format: biochemical; parameters: which encodes full length NACP/α-synuclein 140; 6xHis (cleaved yes); made in house; host or cells: E. coli DH5α
Protocol: Prior to experimentation, each of the recombinant proteins need to be desalted by way of passage through PD 10 columns (Pharmacia, Piscataway, N.J.) in water and then adjusted to a final concentration of 5 μM. NACP/α-synuclein protein (1 μl) is incubated in a total volume of 20 μl of buffer containing 20 mM Tris-HCl, pH 7.4. To perform the immuno-blotting analysis, each sample is resolved by SDS-PAGE (15%) and blotted onto nitrocellulose membrane (Schleicher & Schuell, Keene, N.H.). The blotted membrane is blocked with Tris-Buffered saline (TBS; 20 mM Tris-HCl, pH 7.5 and 150 mM NaCl) containing 3% BSA, followed by incubation with anti-C-terminal rabbit polyclonal antibody (1:1000) in TBS containing 1% BSA. The blocked membrane is then incubated with peroxidase-labeled anti-rabbit IgG (Amersham) (1:1000) and visualized using the ECL immuno-blotting system (Amersham, Cleveland, Ohio), the use of which is well known to those in the art.
It was hypothesized that aggregation of NACP/α-synuclein might be linked to the iron-catalyzed oxidative reactions, represented in FIG. 2a, illustrating the hypothesis for the association of NACP/α-synuclein aggregation with iron-catalyzed oxidative reaction (Harber-Weiss reaction). In order to determine if an iron-catalyzed oxidative reaction promotes aggregation of NACP/α-synuclein, the human recombinant form of this molecule was incubated with ferrous ion (100 μM) and hydrogen peroxide. […] Ferrous ion was not included in lanes 8–10. The position of molecular weight markers (kD) are indicated on left). […] Other transition metals were also examined for their effect on NACP/α-synuclein aggregation.

[4] = Specificity of ferric ion-induced aggregation: recombinant synuclein proteins treated with ferric ion, immunoblot; format: physicochemical, human; settings: 100 μM ferric ion
Protocol: as §3, §4

[5] = Thioflavine-S staining of ferric ion-induced in vitro aggregates; format: physicochemical, human
Protocol: In order to determine if iron-induced NACP/α-synuclein aggregates display amyloid-like characteristics, Thioflavine-S staining is performed.
In order to determine whether the ferric-ion induced in vitro aggregates of NACP/α-synuclein display amyloid-like characteristics, Thioflavine-S staining experiments were performed.

[6] = Thioflavine-S staining of aggregates formed at pH 6.9, 65 C; format: physicochemical, human; settings: pH 6.9, 65 C conditions
Protocol: In order to determine whether the aggregates resulting from aggregation reactions of PROEX-1-β-synuclein 61 and PROEX-1-β-synuclein δ2 display amyloid-like characteristics, 10 μl aliquots of the protein preparations are obtained using the above-described procedures are pipetted onto glass slides and stained with Thioflavine-S. The results are visually analyzed using a confocal microscope, the method of which is well known to those in the art.

[7] = Aggregation assay under high temperature conditions, SDS-PAGE analysis; format: physicochemical, human; settings: 20 μM protein, 100 mM sodium acetate, pH 6.9, 65° C.
Protocol: as §1
Recombinant proteins were produced using a standard E. coli system and high purity products were generated using SDS-PAGE analysis, seen as FIG. 4.
After 8 hours incubation, the bands corresponding to possible dimers became visible and, after 20 hours incubation, bands corresponding to dimers and higher smears in both the separating and stacking portions of the gels was observed.

Nc1c(/N=N/c2ccc(-c3ccc(/N=N/c4cc(S(=O)(=O)O)c5ccccc5c4N)cc3)cc2)cc(S(=O)(=O)O)c2ccccc12 [Congo red]
inhibition of aggregation of β-synuclein δ2 (β-synuclein δ2): partly inhibited aggregation | inhibition of aggregation of NACP/α-synuclein (NACP/α-synuclein [1]): partly inhibited aggregation

[Fe+3] [ferric ion]
aggregation of NACP/α-synuclein 140 induced by the ion [2]: induced aggregation

OO [hydrogen peroxide]
aggregation of NACP/α-synuclein with hydrogen peroxide in the presence of ferrous ion (NACP/α-synuclein [3]; NACP/α-synuclein 1 μM, ferrous ion 100 μM, 1 nM-100 μM H2O2): dose-dependent aggregation | aggregation of NACP/α-synuclein with hydrogen peroxide alone (NACP/α-synuclein [3]; no ferrous ion, 10-100 μM H2O2): no remarkable changes

manganese
aggregation of NACP/α-synuclein by other transition metals in the presence of hydrogen peroxide (NACP/α-synuclein [3]; in the presence of hydrogen peroxide): failed to induce the aggregation

β-synuclein: human recombinant NACP/α-synuclein-related protein with a partially incomplete NAC domain; non-amyloidogenic
aggregation of the protein on treatment with ferric ion [4]: not aggregated | Thioflavine-S reactivity of ferric ion-induced aggregates [5]: not | Thioflavine-S staining of the protein [6]: negative result | aggregation of the protein under high temperature conditions (SDS-PAGE) [7]: showed no aggregation
